Laboratory results reported in article PMC12380353, “MK-8527 is a novel inhibitor of HIV-1 reverse transcriptase translocation with potential for extended-duration dosing” (PLOS Biology, 2025).
Where “and” joins values, the source holds several entries; their conditions need not be identical. Equal entries are not always repeated. Where two headings read alike, the source gives them in different places.

Experiment: PK in rhesus monkeys (plasma)
Format: in vivo
Method: For the IV arm of the study, MK-8527 was administered as a bolus via the cephalic vein at 0.5 mg/kg in 30% Captisol (Ligand Pharmaceuticals, Lawrence, KS, USA). […] After the 6-h time point, they were returned to their cages and placed in a bleed chair for the subsequent time points. No anesthesia was used. As enrichment, animals were pair housed with conspecifics in cages with […]. […] Animals were fed certified primate diet (LabDiet 5048) and given a vitamin C supplement daily. In addition, animals received rotational fruit and vegetables as well as a foraging mix daily. All blood samples were centrifuged at 2,000g for 10 min, and the supernatant plasma samples were removed and stored at -70 °C until further analysis. The concentrations of MK-8527 in plasma were determined by LC-MS/MS assays following a protein precipitation step. Aliquots (50 μL) of plasma were precipitated by addition of 150 μL of acetonitrile solution-containing internal standard (IS), followed by centrifugation at 3,000 rpm for 10 min. A 75-μL aliquot of the supernatant was transferred into a 96-well plate, and 5 μL of each sample was used for analysis. LC-MS/MS analysis was performed on a Transcend LC system with HTS PAL CTC autosampler (Thermo Fisher Scientific, Waltham, MA, USA) interfaced to an API-5000 mass spectrometer using the turbo ion spray interface (Sciex, Framingham, MA, USA). Separation of MK-8527 was achieved on an Xselect HSS XP T3 column (50 × 2.1 mm, 2.5 μm; […] The chromatography for plasma samples was run using gradient elution as follows: the column was equilibrated with 100% A. […] The total run time was 4.15 min. Quantification was done by monitoring the transition of m/z 309 to m/z 169 or 133 for MK-8527. The method was linear across a concentration range of 2-10,000 ng/mL in plasma.

C#C[C@]1(CO)O[C@@H](n2ccc3c(N)nc(Cl)nc32)C[C@@H]1O [Compound 12, (2R,3S,5R)-5-(4-amino-2-chloro-7H-pyrrolo[2,3-d]pyrimidin-7-yl)-2-ethynyl-2-(hydroxymethyl)tetrahydrofuran-3-ol]
concentration at 72 h (monkeys, oral 50 mg/kg, 0.25 hr, listed as MK-8527, 50 mg/kg, read-out: Concentration in plasma, individual subjects): 7.22 µM and 1.93 µM and 8.67 µM | concentration at 72 h (monkeys, oral 50 mg/kg, 0.5 hr, listed as MK-8527, 50 mg/kg, read-out: Concentration in plasma, individual subjects): 11.00 µM and 4.12 µM and 11.10 µM | concentration at 72 h (monkeys, oral 50 mg/kg, 1 hr, listed as MK-8527, 50 mg/kg, read-out: Concentration in plasma, individual subjects): 29.80 µM and 7.40 µM and 20.20 µM | concentration at 72 h (monkeys, oral 50 mg/kg, 2 hr, listed as MK-8527, 50 mg/kg, read-out: Concentration in plasma, individual subjects): 30.50 µM and 11.00 µM and 27.80 µM | concentration at 72 h (monkeys, oral 50 mg/kg, 4 hr, listed as MK-8527, 50 mg/kg, read-out: Concentration in plasma, individual subjects): 15.20 µM and 15.40 µM | concentration at 72 h (monkeys, oral 50 mg/kg, 6 hr, listed as MK-8527, 50 mg/kg, read-out: Concentration in plasma, individual subjects): 14.30 µM and 9.31 µM | concentration at 72 h (monkeys, oral 50 mg/kg, 24 hr, listed as MK-8527, 50 mg/kg, read-out: Concentration in plasma, individual subjects): 1.81 µM and 1.27 µM | concentration at 72 h (monkeys, oral 50 mg/kg, 30 hr, listed as MK-8527, 50 mg/kg, read-out: Concentration in plasma, individual subjects): 0.81 µM and 0.58 µM | concentration at 72 h (monkeys, oral 50 mg/kg, 48 hr, listed as MK-8527, 50 mg/kg, read-out: Concentration in plasma, individual subjects): 0.31 µM and 0.26 µM and 0.13 µM | concentration at 72 h (monkeys, oral 50 mg/kg, 72 hr, listed as MK-8527, 50 mg/kg, read-out: Concentration in plasma, individual subjects): 0.07 µM and 0.05 µM | concentration at 72 h (monkeys, oral 50 mg/kg, 168 hr, listed as MK-8527, 50 mg/kg, read-out: Concentration in plasma, individual subjects): 0.0143 µM and 0.0113 µM and 0.00651 µM | half-life (rhesus monkey, plasma, iv, 0.5 mg/kg, monkey, plasma, IV 0.5 mg/kg, read-out: t½ (converted)): ~7 h | concentration at 0.25 h (rhesus monkey, plasma, po, 50 mg/kg, monkeys, oral 50 mg/kg, 0.25 hr, read-out: Arithmetic Mean Concentration in plasma): 4.94 µM | concentration at 0.5 h (rhesus monkey, plasma, po, 50 mg/kg, monkeys, oral 50 mg/kg, 0.5 hr, read-out: Arithmetic Mean Concentration in plasma): 7.95 µM | concentration at 1 h (rhesus monkey, plasma, po, 50 mg/kg, monkeys, oral 50 mg/kg, 1 hr, read-out: Arithmetic Mean Concentration in plasma): 16.4 µM | concentration at 30 h (rhesus monkey, plasma, po, 50 mg/kg, monkeys, oral 50 mg/kg, 30 hr, read-out: Arithmetic Mean Concentration in plasma): 0.79 µM | concentration at 30 h (rhesus monkey, plasma, po, 50 mg/kg, monkeys, oral 50 mg/kg, 30 hr, read-out: Concentration in plasma, individual subjects): 1.04 µM | concentration at 48 h (rhesus monkey, plasma, po, 50 mg/kg, monkeys, oral 50 mg/kg, 48 hr, read-out: Arithmetic Mean Concentration in plasma): 0.22 µM | concentration at 72 h (rhesus monkey, plasma, po, 50 mg/kg, monkeys, oral 50 mg/kg, 72 hr, read-out: Arithmetic Mean Concentration in plasma): 0.07 µM | concentration at 72 h (rhesus monkey, plasma, po, 50 mg/kg, monkeys, oral 50 mg/kg, 72 hr, read-out: Concentration in plasma, individual subjects): 0.09 µM | concentration at 168 h (rhesus monkey, plasma, po, 50 mg/kg, monkeys, oral 50 mg/kg, 168 hr, read-out: Arithmetic Mean Concentration in plasma): 0.01 µM | clearance (rhesus monkey, plasma, monkey, IV 0.5 mg/kg, read-out: CLp): 12.6 ± 3.3 mL/min/kg | Vd (rhesus monkey, plasma, monkey, IV 0.5 mg/kg, read-out: Vdss): 4.4 ± 0.8 L/kg | bioavailability (rhesus monkey, plasma, monkey, oral 1 mg/kg): 100% | concentration at 2 h (rhesus, rhesus monkey, plasma, po, 50 mg/kg, monkeys, oral 50 mg/kg, 2 hr, read-out: Arithmetic Mean Concentration in plasma): 21.1 µM | concentration at 4 h (rhesus, rhesus monkey, plasma, po, 50 mg/kg, monkeys, oral 50 mg/kg, 4 hr, read-out: Arithmetic Mean Concentration in plasma): 15.8 µM | concentration at 4 h (rhesus, rhesus monkey, plasma, po, 50 mg/kg, monkeys, oral 50 mg/kg, 4 hr, read-out: Concentration in plasma, individual subjects): 16.9 µM | concentration at 6 h (rhesus, rhesus monkey, plasma, po, 50 mg/kg, monkeys, oral 50 mg/kg, 6 hr, read-out: Arithmetic Mean Concentration in plasma): 11 µM | concentration at 6 h (rhesus, rhesus monkey, plasma, po, 50 mg/kg, monkeys, oral 50 mg/kg, 6 hr, read-out: Concentration in plasma, individual subjects): 10.1 µM | concentration at 24 h (rhesus, rhesus monkey, plasma, po, 50 mg/kg, monkeys, oral 50 mg/kg, 24 hr, read-out: Arithmetic Mean Concentration in plasma): 1.75 µM | concentration at 24 h (rhesus, rhesus monkey, plasma, po, 50 mg/kg, monkeys, oral 50 mg/kg, 24 hr, read-out: Concentration in plasma, individual subjects): 2.34 µM
